Legend:
Male DIO mice = test: In vivo evaluation for glucose disposal and lipidemia in DIO mice (Example 11); conditions: 0.045% in HFD
Protocol: The DIO mice were prepared by feeding male C57BL/6 mice a high fat diet (HFD, Research Diets D12492) from 6-14 weeks of age. DIO mice were housed individually and maintained on the HFD through the duration of study. A twelve-hour light cycle was maintained with room temperature maintained at 22-25° C. All of the mice were acclimated to the facility for 5 days prior to starting the study.
Following 5 days of facility acclimation, DIO mice were randomized into 8 groups of 10 based on body weight and blood glucose for assignment to treatment, as shown in Table 9:
All treatments were administered admixed in HFD (Research Diets, New Brunswick N.J.) and were provided ad libitum for 30 days. Drinking water for group 7 was supplemented with 1, 3 Butanediol at 3% concentration.
Body weight was recorded at baseline and twice weekly thereafter. Feed and water intakes were recorded each Monday, Wednesday, and Friday.
Blood samples (<3 μL) were obtained one hour post dose by tail clip at baseline and weekly thereafter for measurement of fed blood glucose by StatStrip. Additional anti-coagulated blood samples (100 μl, EDTA di-potassium salt) were obtained by tail clip one hour post-dose at baseline, day 14 and day 30. Anti-coagulated samples were quick frozen and stored on dry ice.
Animals were subjected to a 16 hour fast for performance of an oral glucose tolerance test (OGTT) on day 28. Blood samples were obtained via tail clip just prior to (8 am) and 15, 30, 60, 90, and 120 minutes post-glucose load (2.0 g/kg, PO) for assay of whole blood glucose (StatStrip). Feed was returned following last sample.
Animals were terminated on day 30-31 using CO2 inhalation and induction of pneumothorax. Terminal blood samples were obtained by cardiac puncture. Whole blood was processed to serum and analyzed for serum cholesterol, triglycerides, high density lipoprotein (HDL), low density lipoprotein (LDL) and non-esterified fatty acids (NEFA) using AU480 clinical analyzer.
Organ weights (liver, spleen, subcutaneous fat, inguinal fat, abdominal fat, and epididymal fat) were recorded. Sections of each fat were frozen or fixed in 4% paraformaldehyde/PBS, pH 6.9; Fat samples were placed on dry ice. Fixed liver samples (4% paraformaldehyde) were sent to Premier Laboratories for H&E staining and scoring for steatosis, inflammation and fibrosis. Spleen samples were prepared in ice cold 5% bovine serum albumin (BSA) in PBS or 4% paraformaldehyde. Sections of brain, heart, lung, and small and large intestine were fixed in 10% formalin.
All data are represented as group mean±SEM. Data were analyzed using JMP (SAS software). All normalizations were calculated using terminal body weight.
Baseline differences among groups were identified using Tukey-Kramer Hsd<0.05. Treatment effects compared to control were determined using Oneway ANOVA (*, p<0.05) followed by Dunnett's test where appropriate.

Mouse 3T3-L1 cells = test: Mouse adipocyte lipolysis assay; type: cell-based; conditions: for activity at 500 µM: 0.5 mM
Protocol: Once the cells became confluent, they were seeded into a tissue culture treated 96 well plate. […] After 14 days of differentiation, cells were treated with compounds of interest. After 24 hours post-treatment, the cell viability was assessed using CellTiter-Glo Luminescent Cell Viability Assay from Promega, and lipolysis was determined using Lipolysis Assay Kit from ZenBio.

naïve CD4+ T cells = test: Human regulatory T cell differentiation assay; type: cell-based; conditions: 6 days
Protocol: Peripheral blood mononuclear cells (PBMCs) from whole blood donated by health volunteers were separated by Ficoll-Paque gradient centrifugation and naïve CD4^+ T cells were subsequently isolated using magnet beads (EasySep™ Human Naïve CD4^+ T Cell Isolation Kit, Cambridge, Mass.). For regulatory T cell (Treg) differentiation assay, naïve CD4^+ T cells were cultured (1-10×10^4 cells) in CTS OpTmizer medium for 6 days and stimulated with 5 ng/ml TGF-β, 100 U/ml IL-2, and ImmunoCult™ Human […] T Cell Activator; Stemcell #10990) with/without our Compounds. Cell viability was determined using a viability dye (eBioscience Fixable Viability Dye eFluor 780: ThermoFisher 65-0865-14) at 1:500 dilution. The cells were gated for Treg, defined as Live, CD11c^−, CD14^−, CD19^−, CD8^−, CD4^+, CD3^+, CD25^+, FOXP3^+. Percent (%) Tregs were calculated as percentage of CD4^+, CD25^+, FOXP3^+ cells over total CD4^+ T cells. Statistical analysis was performed with GraphPad Prism Software Using One-Way ANOVA.

Mouse myocyte = Mouse myocyte lipolysis assay; type: cell-based; conditions: for activity at 500 µM: 0.5 mM
Protocol: Cells were obtained from ATCC and cultured in Dulbecco's Modified Eagle's medium (DMEM) containing 20% fetal bovine serum and 1% penicillin/streptomycin at 37° C. in an incubator with 5% CO2. Once the cells became confluent, they were seeded into a tissue culture treated 96 well plate. The next day, the medium containing DMEM with 2% equine serum was used to start differentiation. Once cells were fully differentiated, they were treated with indicated compounds.

[1] = system: Human Peripheral Blood Monocytes (PBMCs); test: Cytokine release from human PBMCs; type: cell-based; conditions: 100 μM, LPS, 24 hours
Protocol: Human donor blood (8 mL) was collected in sodium citrate CPT tubes and centrifuged at 1,600×g for 20 minutes at room temperature. […] PBMCs samples were centrifuged at 400×g for 10 minutes at 10° C. […] PBMCs were filtered through a 70 micron mesh to remove any cellular debris. […] PBMCs in a 96-well plate were rested for 30 minutes in a 37° C., 5% CO2 incubator, then subsequently treated with 10 μl of indicated compound. After 2 hours 10 μL of LPS (O111:B4) 1 mg/mL was added to test wells. After 24 hours of incubation at 37° C., 5% CO2, 100 μL of cell supernatant was collected and transferred to a 96-well plate (non-tissue treated, flat bottom). The plate was centrifuged at 350×g for 5 minutes at room temperature, and then the clear supernatant transferred to a new 96-well plate (non-tissue treated, flat bottom). The remaining cells were tested for viability using CellTiter-Glo® Luminescent Cell Viability Assay (Promega). The supernatant was analyzed for TNFα, IL-6 and IL-1β (kit LXSAHM-03; R&D Systems), using Luminex Immunoassay Technology (MAGPIX System). Cytokine levels of LPS treated DMSO control samples were set to 100%, and compound treated samples were expressed relative to this (Table 13).

[2] = system: Primary human subcutaneous adipocytes; test: Glucose uptake in human subcutaneous adipocytes, insulin resistant model; type: cell-based
Protocol: As described above, primary human subcutaneous adipocytes were differentiated for two weeks prior to treatment. To induce an insulin resistant state, cells were treated in serum free Dulbecco's Modified Eagle Medium (high glucose) and […] for 24 hours. Cells were simultaneously treated with compounds diluted in DMSO for 24 hours. As described above, after 24 hours, media was exchanged for assay buffer and the compounds were added again but in the presence of approximately 1 nM insulin. Cells were washed and lysed after 2 hours and glucose uptake was measured. […] Statistical changes in glucose uptake were determined by way ANOVA and compared to DMSO.

[3] = system: Primary human subcutaneous adipocytes; test: Glucose uptake in human subcutaneous adipocytes, insulin sensitive model; type: cell-based; conditions: for insulin-mediated glucose uptake: insulin sensitive model, compared to DMSO
Protocol: Primary human subcutaneous adipocytes (Zen Bio, Research Triangle Park, N.C.) were differentiated for two weeks prior to treatment. Cells were treated with indicated compounds diluted in (dimethyl-sulfoxide) DMSO in serum free medium for 24 hours in triplicate. After 24 hours, media was exchanged for assay buffer and the compounds were added again but in the presence of approximately 1 nM insulin. Glucose uptake was initiated with the addition of a cocktail containing 2-deoxyglucose and ^3H-2-deoxyglucose and allowed to incubate for 2 hours. Cells were washed, lysed and glucose uptake was measured as counts per well. As an assay control, 100 nM of insulin was used during the 2 hours of glucose uptake. […] Statistical changes in glucose uptake were determined by way ANOVA and compared to DMSO.

[4] = Mus musculus, 3T3-L1, 24 hours, read-out: Lipolysis Free Fatty Acids % DMSO
[5] = Homo sapiens, CD4+ T, 144 h, 0.5 mM, read-out: Treg induction % DMSO
[6] = Mus musculus, read-out: Free glycerol % DMSO

## CN(CCOc1ccc(CC2SC(=O)NC2=O)cc1)c1ccccn1 (stereo not shown) [Rosiglitazone, rosiglitazone, reference compound]
Male DIO mice
  Abdominal fat (% BW): *1.6 ± 0.1 % BW
  Blood glucose (fed) change compared to baseline: −22.8±3.7%
  Epididymal fat (% BW): 4.1 ± 0.2 % BW
  Inguinal fat (% BW): 0.78 ± 0.05 % BW
  Subcutaneous fat (% BW): *7.6 ± 0.5 % BW
Male DIO mice; 28 days, 16 hour fast
  Fasting blood glucose levels (time 0 from OGTT): 91.3 ± 2.5 mg/dL
Male DIO mice; 30 days
  change in body weight from baseline: 22.8±1.9%
Male DIO mice; terminal (fed) serum
  Cholesterol: *121.5 ± 7.3 mg/dL
  HDL: *60.5 ± 3.0 mg/dL
  LDL: 8.0 ± 0.5 mg/dL
  NEFA: *0.71 ± 0.04 mEq/L
  Triglycerides: 91.3 ± 4.8 mg/dL
Mouse 3T3-L1 cells; [4]
  activity at 100 µM: ≤ 50%
naïve CD4+ T cells; 10 uM
  Cell viability % DMSO: = (90%≥ ≤110%: =)
naïve CD4+ T cells; 100 uM
  Cell viability % DMSO: − (<90%: −)
naïve CD4+ T cells; Homo sapiens, CD4+ T, 144 h, 10 uM, read-out: Treg induction % DMSO
  activity at 10 µM: 90 to 110%
naïve CD4+ T cells; Homo sapiens, CD4+ T, 144 h, 100 uM, read-out: Treg induction % DMSO
  activity at 100 µM: 90 to 110%
Mouse myocyte; Mus musculus, 10 μM, read-out: Free glycerol % DMSO
  activity at 10 µM: 50 to 70%
Mouse myocyte; Mus musculus, 100 μM, read-out: Free glycerol % DMSO
  activity at 100 µM: 50 to 70%

## O=C[C@@H](O)[C@H](O)[C@H](O)CO [arabinose]
[1]
  IL6 % DMSO control: + ((+) 50%≥ <90% DMSO)
  ILβ % DMSO control: = ((=) 90%≥ <110% DMSO)
  TNFα % of DMSO control: + ((+) 50%≥ <90% DMSO)
[2]; 0.5 mM
  Insulin Resistant % DMSO (glucose uptake): = (50%> ≤110%: =)
[2]; 1 mM
  Insulin Resistant % DMSO (glucose uptake): = (50%> ≤110%: =)
[3]; 0.5 mM
  Insulin Sensitive % DMSO (glucose uptake): = (50%> ≤110%: =)
[3]; 1 mM
  Insulin Sensitive % DMSO (glucose uptake): ++ (140%≥ ≤200%: ++)

## CC(O)CC(=O)[O-].[Na+] (stereo not shown) [Sodium BHB]
Mouse 3T3-L1 cells; 0.2 mM, 24 hours
  Lipolysis Free Fatty Acids % DMSO: ++ (50> ≤70%: ++)
  Lipolysis Glycerol % change: + (70%> ≤90%: +)
Mouse 3T3-L1 cells; 0.2 mM, 24 hours post-treatment
  cell viability (CellTiter-Glo): 86 % of DMSO control
Mouse 3T3-L1 cells; 2 mM, 24 hours
  Lipolysis Free Fatty Acids % DMSO: ++ (50> ≤70%: ++)
  Lipolysis Glycerol % change: ++ (50> ≤70%: ++)
Mouse 3T3-L1 cells; 20 mM, 24 hours
  Lipolysis Free Fatty Acids % DMSO: + (70%> ≤90%: +)
  Lipolysis Glycerol % change: ++ (50> ≤70%: ++)
naïve CD4+ T cells; 2 mM
  Cell viability % DMSO: = (90%≥ ≤110%: =)
  Treg induction % DMSO: + (110%> ≤130%: +)
naïve CD4+ T cells; 20 mM
  Cell viability % DMSO: − (<90%: −)
  Treg induction % DMSO: = (90%≥ ≤110%: =)
Mouse myocyte; 0.2 mM
  Free glycerol % DMSO: ++ (50> <70%: ++)
Mouse myocyte; 2 mM
  Free glycerol % DMSO: ++ (50> <70%: ++)

## C[C@@H](O)CCO [(R)-1,3-Butanediol, (3R)-butane-1,3-diol]
Mouse 3T3-L1 cells; [4]
  activity at 100 µM: 50 to 70%
  activity at 500 µM: 50 to 70%
naïve CD4+ T cells; 100 uM
  Cell viability % DMSO: = (90%≥ ≤110%: =)
naïve CD4+ T cells; 0.5 mM
  Cell viability % DMSO: = (90%≥ ≤110%: =)
naïve CD4+ T cells; [5]
  activity at 500 µM: 90 to 110%
Mouse myocyte; [6]
  activity at 500 µM: 70 to 90%
[2]; 100 μM
  Insulin Resistant % DMSO (glucose uptake): = (50%> ≤110%: =)
[2]; 500 μM
  Insulin Resistant % DMSO (glucose uptake): = (50%> ≤110%: =)
[3]; 100 μM
  Insulin Sensitive % DMSO (glucose uptake): = (50%> ≤110%: =)
[3]; 500 μM
  Insulin Sensitive % DMSO (glucose uptake): ++ (140%≥ ≤200%: ++)
[3]
  insulin-mediated glucose uptake: significantly enhanced insulin-mediated glucose uptake

## C[C@@H](O)CC(=O)O [(R) BHB]
[2]; 2 mM
  Insulin Resistant % DMSO (glucose uptake): + (110%> ≤140%: +)
[2]; 20 mM
  Insulin Resistant % DMSO (glucose uptake): = (50%> ≤110%: =)
[3]; 2 mM
  Insulin Sensitive % DMSO (glucose uptake): ++ (140%≥ ≤200%: ++)
[3]; 20 mM
  Insulin Sensitive % DMSO (glucose uptake): ++ (140%≥ ≤200%: ++)

## C[C@@H](O)CC(=O)O [(R)-BHB]
[2]; insulin-resistant like state, compared to DMSO
  insulin-mediated glucose uptake: significantly enhanced insulin-mediated glucose uptake
[3]
  insulin-mediated glucose uptake: significantly enhanced insulin-mediated glucose uptake

## O=C[C@H](O)[C@@H](O)[C@@H](O)CO [L-arabinose]
Mouse 3T3-L1 cells; [4]
  activity at 500 µM: 50 to 70%
Mouse 3T3-L1 cells; Mus musculus, 3T3-L1, 1 mM, 24 hours, read-out: Lipolysis Free Fatty Acids % DMSO
  activity at 1000 µM: 50 to 70%
naïve CD4+ T cells; 0.5 mM
  Cell viability % DMSO: = (90%≥ ≤110%: =)
naïve CD4+ T cells; 1 mM
  Cell viability % DMSO: = (90%≥ ≤110%: =)
naïve CD4+ T cells; [5]
  activity at 500 µM: 90 to 110%
naïve CD4+ T cells; Homo sapiens, CD4+ T, 144 h, 1 mM, read-out: Treg induction % DMSO
  activity at 1000 µM: 90 to 110%
Mouse myocyte; [6]
  activity at 500 µM: 70 to 90%
Mouse myocyte; Mus musculus, 1 mM, read-out: Free glycerol % DMSO
  activity at 1000 µM: 70 to 90%

## CCC(=O)O [Propionic acid]
Mouse 3T3-L1 cells; Mus musculus, 3T3-L1, 3 mM, 24 hours, read-out: Lipolysis Free Fatty Acids % DMSO
  activity at 3000 µM: ≤ 50%
naïve CD4+ T cells; 3 mM
  Cell viability % DMSO: = (90%≥ ≤110%: =)
Mouse myocyte; Mus musculus, 3 mM, read-out: Free glycerol % DMSO
  activity at 3000 µM: 50 to 70%
